Measured values as given in patent US20150218563A1, “COMPOSITIONS AND METHODS FOR MODULATION OF RORGAMMAT FUNCTIONS” (priority 2004, published 2015).

Test system: mRORγt
Experiment: shRNA inhibition of mRORγt expression in AKR1 cells, monitored by Western blot
Assay type: cell-based, mouse
Details: AKR1 cells infected with retrovirus encoding the shRNA vs empty retroviral vector, HMG-1 loading control
Description: FIG. 42. Delivery of siRNA Hairpins by a Retroviral vector. […] After the AKR1 cells were infected with these vectors, mRORγt expression was monitored by Western blot. HMG-1 was used as an internal loading control. […] The effect lasted for at least two to three weeks, as shown in the lower panel.
Two shRNA molecules were generated using the DNA sequence of SEQ ID NO: 3 (mouse RORγt). In particular, the nucleotides from position 358-378 of SEQ ID NO: 3 and from position 1269-1289 of SEQ ID NO: 3 (mouse RORγt) were used to generate shRNA molecules. These sequences are as follows:
When tested for the ability to inhibit expression of RORγt, as well as expression of a target molecule for RORgt, significant inhibition of expression was observed. (See FIGS. 42 and 43).

Sequence | inhibition of RORγt expression
GGAACTGGCTTTCCATCATCA (expressed or natural sequence) [SEQ ID NO: 10] | shown to inhibit the expression of RORγt
GGAGCAGACACACTTACATAC (chemistry not given here) [SEQ ID NO: 9] | shown to inhibit the expression of RORγt
